In the oligonucleotide strings, read from the 5' end, every base follows the letter of its sugar. An asterisk marks phosphorothioate; unmarked linkages are phosphodiester. Other units and linkages are bracketed, terminal groups are in braces. A string of capitals states the bases alone. {ET-GalNAc-T2CO} = code of the source, not defined here; {NH2C12} = code of the source, not defined here; {NHC6} = code of the source, not defined here; m = 2'-O-methyl; f = 2'-fluoro
System: hsHAO1 mRNA
Assay: Dose-response of hsHAO1 targeting GalNAc-siRNAs in primary human hepatocytes, gymnotic free uptake, bDNA assay
Format: cell-based
Conditions: PHHs
Description: HepG2 cells were supplied by American Tissue Culture Collection (ATCC) (HB-8065, Lot #: 63176294) and cultured in ATCC-formulated Eagle's Minimum Essential Medium supplemented to contain 10% fetal calf serum (FCS). Primary human hepatocytes (PHHs) were sourced from Primacyt (Schwerin, Germany) (Lot #: CyHuf19009HEc). Cells are derived from a […] by explant technique. All cells used in this study were cultured at 37° C. in an atmosphere with 5% CO2 in a humidified incubator.
Dose response analysis in PHHs was done by direct incubation of cells in a gymnotic, free uptake setting starting with 1.5 μM highest final siRNA concentration, followed by 500 nM and from there on going serially down in twofold dilution steps.
Control wells were transfected into HepG2 cells or directly incubated with primary human hepatocytes at the highest test siRNA concentrations studied on the corresponding plate. All control siRNAs included in the different project phases next to mock treatment of cells are summarized and listed in Table 2. For each siRNA and control, at least four wells were transfected/directly incubated in parallel, and individual data points were collected from each well.
After 24 h of incubation with siRNA post-transfection, media was removed and HepG2 cells were lysed in Lysis Mixture (1 volume of lysis buffer plus 2 volumes of nuclease-free water) and then incubated at 53° C. for at least 45 minutes. In the case of PHHs, plating media was removed 5 h post treatment of cells followed by addition of 50 μl of complete maintenance medium per well. Media was exchanged in that way every 24 h up to a total incubation period of 72 h. At either 4 h or 72 h time point, cell culture supernatant was removed followed by addition of 200 μl of Lysis Mixture supplemented with 1:1000 v/v of Proteinase K.
The branched DNA (bDNA) assay was performed according to manufacturer's instructions. Luminescence was read using a 1420 Luminescence Counter (WALLAC VICTOR Light, Perkin Elmer, Rodgau-JMgesheim, Germany) following 30 minutes incubation in the presence of substrate in the dark. For each well, the on-target mRNA levels were normalized to the hsGAPDH mRNA levels. The activity of any siRNA was expressed as percent on-target mRNA concentration (normalized to hsGAPDH mRNA) in treated cells, relative to the mean on-target mRNA concentration (normalized to hsGAPDH mRNA) across control wells.
Following the identification of a suitable batch (CyHuf19009) of primary human hepatocytes (PHHs), a gymnotic, free uptake analysis was performed of hsHAO1 targeting GalNAc-siRNAs, listed in Table 1. The highest tested final siRNA concentration was 1.5 μM, followed by 500 nM, going down in eight two-fold serial dilution steps to the lowest final siRNA concentration of 1.95 nM. The experiments ended at 4 h and 72 h post direct incubation of PHH cells.

Substance	Max. Inhib. (4 h incubation) [%]	IC20 (72 h incubation) [nM]	IC50 (72 h incubation) [nM]	Max. Inhib. (72 h incubation) [%]
ECX008: hsHAO1 GalNAc-siRNA, 3′-GalNAc T2a alternating, same sequences as ETX008, lower purity (sense fG*mA*fCmUfUmUfCmAfUmCfCmUfGmGfAmAfAmUfAmUfA-{NHC6}-{ET-GalNAc-T2CO}; antisense mU*fA*mUfAmUfUmUfCmCfAmGfGmAfUmGfAmAfAmGfUmC*fC*mA; further chemistry not given here)	2.0	4.9	260	58.1
ETX002: hsHAO1 GalNAc-siRNA, 5′-GalNAc T2b inverted abasic; sense X91409, antisense X38483; linker + ligand as FIG. 21 (sense GACUUUCAUCCUGGAAAUAUA; antisense UAUAUUUCCAGGAUGAAAGUCCA; 5'-GalNAc, inverted abasic, 2'-F/OMe, PS; misc_feature 1..21 modified siRNA; misc_feature 1..23 modified siRNA)	7.2	23.9		44.3
ETX004: hsHAO1 GalNAc-siRNA, 5′-GalNAc T2b alternating; sense X91412, antisense X91398; linker + ligand as FIG. 21 (sense {ET-GalNAc-T2CO}-{NH2C12}-fGmAfCmUfUmUfCmAfUmCfCmUfGmGfAmAfAmUfA*mU*fA; antisense mU*fA*mUfAmUfUmUfCmCfAmGfGmAfUmGfAmAfAmGfUmC*fC*mA)	−2.3	2.8		35.5

From patent US20230310486A1, “CONJUGATED OLIGONUCLEOTIDE COMPOUNDS, METHODS OF MAKING AND USES THEREOF” (E-Therapeutics PLC, priority 2021, published 2023)
